# Measurements from article PMC7156724, “Potent BRD4 inhibitor suppresses cancer cell-macrophage interaction” (Nature Communications, 2020).
# Values joined by “and” are separate entries in the source; they are usually repeats but may differ in a detail not shown here. Equal values may be shown once.
# Tests used:
# A375 melanoma cells = test: AlamarBlue assay, A375; type: cell-based, human; conditions: for Cellular activity in melanoma cells (A375), alamarBlue: Fig.1g, replicates
# Method: 3. AlamarBlue assay. AlamarBlue was made by resazurin sodium salt (Sigma, Cat
# # 199303) dissolved in PBS.
# NCI-H211, MDA-MB231 and A375 cells were plated in 96-well plates at approximately 30% confluence and left overnight to adhere. In the following day, […]
# of treatment, 10 μl AlamarBlue reagent (0.3 mg/ml) was added to each well, and after 18h, the florescence intensity in each well was measured using a top-reading fluorescent plate reader with excitation at 530 nm and emission at 590 nm. […]
# [1] = test system: phosphorylated BRD4 and c-MYC; test: Western blot of p-BRD4, BRD4 and c-MYC in solid tumor cell lines; type: cell-based, human; conditions: 24 h
# Method: Fig. 2 NHWD-870 inhibited BRD4 phosphorylation and c-MYC expression, and suppressed cell growth. a Representative western blot analysis of p-BRD4 (s484/488), BRD4, c-MYC, and GAPDH after treatment of MDA-MB231, SUM159, A2780 ES-2, and H526 cells with JQ-1 or NHWD-870 at the indicated concentrations for 24 h. GAPDH served as the loading control. Selected from three independent experiments. b MTT assays of H526, A2780, ES-2, and MDA-MB231 cells treated with JQ-1 or NHWD-870 at the indicated concentrations for 5 days. Data are presented as mean ± SEM from three independent experiments. c, d Clonogenic assays of H526, A2780, ES-2 and MDA-MB231 cells treated with 250 nM JQ-1 or NHWD-870 for 5 days. Shown are representative images (c) and quantification of colonies (d). […] Shown are representative images (e) and quantification of relative colony sizes (f). Scale bar, 50 μm. Data are presented as mean ± SEM from five independent experiments. p values were calculated using two-tailed, unpaired t tests in this figure. **p < 0.01; ***p < 0.001. Source data are provided as a Source Data file. […]
# 4. Protein extraction and w estern blot anal ysis. Freshly dissected unfixed tissue was homogenized in lysis buffer. The lysates were centrifuged at 13,000g for 10 minutes at 4°C. Supernatants were collected and determined with a Bradford Protein Assay kit (Bio-Rad, Hercules, CA). The cell lysates were subjected to SDS-PAGE followed by immunoblotting (Immobilon P; Millipore, Milford, MA) with specific antibodies followed by detection using an enhanced chemilumine scence kit (Amersham Life Science, Arlington Heights, IL). […]
# [2] = test system: human melanoma patient-derived xenograft (PDX); test: Human melanoma patient-derived xenograft (PDX) tumor growth; type: in vivo, NSG mice; conditions: human melanoma PDX, once daily (5 days on, 2 days off) 21 days, NHWD-870-HCl
# From the text: PO, oral administration; QD, once daily; BID, twice daily. b–d Tumor growth curves for A2780 ovarian tumor (n = 5) (b), TMD8 large B cell lymphoma (n = 6) (c), and B16F10 melanoma (n = 5) (d) bearing mice treated with the indicated compounds once daily for 11-21 days. e, f Tumor growth curves for A375 melanoma (n = 6) (e), and patient-derived xenograft (PDX) of melanoma (n = 5) (f) bearing mice treated with the indicated compounds once daily (5 days on, 2 days off) for 21 days. For d–f, NHWD-870 used is NHWD-870-HCl synthesized using Suzuki coupling route. Data are presented as mean ± SEM in (a, b, d, f) and mean + SEM in (c, e). p values were calculated using two-tailed, unpaired t tests. *p < 0.05; **p < 0.01; ***p < 0.001. Source data are provided as a Source Data file.
# 4–6 weeks old female BALB/c nude mice were used for most experiments, with the exception of 6–8 weeks old female C57BL/6 mice were used for B16F10 experiments, and 6–8 weeks old male BALB/c nude mice and SD rats were used for pharmacokinetic experiments. All animals were purchased from Shanghai SIPPR-Bk Lab Animal Co., Ltd. All animals were housed under a regimen of 12 h light/12 h dark cycles and specific pathogen-free conditions. 5×10^6 NCI-H526, ES-2, MDA-MB231, A2780, A375, B16F10, and TMD-8 cells (0.1 ml) were injected subcutaneously into female nude mice. The melanoma patient-derived xenograft model was derived from a human melanoma sample (BRAF, NARS and NF1 wild type, and p53 mutant) removed from a patient in Xiangya Hospital. Surgically removed tumor fragments were implanted subcutaneously into female NSG mice. When the tumors grew to ~1000 mm^3, they were harvested and cryopreserved or immediately re-implanted for expansion or experiments. Mouse body weight and tumor sizes were measured every 3 days. Once the tumors grew to 150–200 mm^3, mice were treated with the compounds as described in the Figures. 1 × 10^6 A2780 cells (1 ml) were injected into the abdominal cavity of nude mice. Ascitic volume and tumor weight were measured by an electronic balance. All the procedures were evaluated and approved by the Institutional Animal Care and Use Committee of Central South University and Yale University.
# CSF1 mRNA = test: RT-qPCR of CSF1 mRNA in mouse tumor cells (ID8, B16); type: cell-based; conditions: ID8, 50 nM, 48 h
smiles,measurement,setting,value
Cc1nnn(C)c1-c1cnc2c3c4cnn(C)c4ccc3n([C@H](c3ccccc3)C3CCOCC3)c2c1 [NHWD-870],fold more potent than GSK-525762 or OTX015,A375 melanoma cells; A375 cells,about 14 fold
same,fold more potent than I-BET151,A375 melanoma cells; A375 cells,about 23 fold
same,"Cellular activity in melanoma cells (A375), alamarBlue",A375 melanoma cells; concentration(nM) 0.21442,0.8628 and 1.0579
same,"Cellular activity in melanoma cells (A375), alamarBlue",A375 melanoma cells; concentration(nM) 0.31236,16.3424 and 12.5613
same,"Cellular activity in melanoma cells (A375), alamarBlue",A375 melanoma cells; concentration(nM) 0.4103,30.3045 and 25.7042
same,"Cellular activity in melanoma cells (A375), alamarBlue",A375 melanoma cells; concentration(nM) 0.6032,65.3038 and 63.4524
same,"Cellular activity in melanoma cells (A375), alamarBlue",A375 melanoma cells; concentration(nM) 1.2043,75.3216 and 83.4358
same,"Cellular activity in melanoma cells (A375), alamarBlue",A375 melanoma cells; concentration(nM) 1.8024,92.8346 and 91.942
same,"Cellular activity in melanoma cells (A375), alamarBlue",A375 melanoma cells; concentration(nM) 2.4,100.774 and 99.5602
same,"Cellular activity in melanoma cells (A375), alamarBlue",A375 melanoma cells; concentration(nM) 3,101.341 and 101.79
same,IC50,"A375 melanoma cells; Homo sapiens, A-375, nM printed in b8, the picture prints no unit, read-out: IC50, cellular activity in A375 (alamarBlue)",2.46 nM
same,effect on phosphorylated BRD4 and c-MYC (western blot),[1]; 10 nM,depletion of phosphorylated BRD4 and c-MYC
same,effect on the stability of BRD4 (western blot),[1],minimal effects on the stability of BRD4
same,effect on tumor growth,[2],very strong tumor inhibitive effects
same,relative CSF1 mRNA level,CSF1 mRNA,0.0037 and 0.00425 and 0.0051
